Calls of active or inactive are those of the source. No cut-off for these calls is given here.
Columns and labels:
Type in all cases: functional, organism-based
Phalaris canariensis [1] = experiment: Stimulation of radicle growth in Phalaris canariensis at 50 ug/ml
Phalaris canariensis [2] = experiment: Phytotoxicity against Phalaris canariensis assessed as inhibition of radicle growth at 50 ug/ml
Lactuca sativa [3] = experiment: Phytotoxicity against Lactuca sativa assessed as inhibition of germination at 50 ug/ml
Lactuca sativa [4] = experiment: Phytotoxicity against Lactuca sativa assessed as inhibition of emergence rate index at 50 ug/ml
Lactuca sativa [5] = experiment: Phytotoxicity against Lactuca sativa assessed as inhibition of radicle growth at 50 ug/ml

CC1=C(C)[C@H]2C(=O)[C@@H](C)[C@]3(O)CC[C@H]4[C@@H]5C[C@@H](O)[C@@]6(O)CC=CC(=O)[C@]6(C)[C@H]5C[C@@]2(OC1=O)[C@@]43C
Activity (Phalaris canariensis [1]): Active

CC1=C(C)C(=O)O[C@]2(C1)O[C@@]1(O)C[C@H]3[C@@H](C[C@@H](O)[C@@]4(Cl)CC=CC(=O)[C@]34C)[C@@H]3CC[C@@](O)([C@@H]2C)[C@]31C
Activity (Phalaris canariensis [2]): Active

CC1=C(C)C(=O)O[C@]2(C1)O[C@@]1(O)C[C@H]3[C@@H](C[C@H](Cl)[C@]4(O)CC=CC(=O)[C@]34C)[C@@H]3CC[C@@](O)([C@@H]2C)[C@]31C
Activity (Lactuca sativa [3]): Active
Activity (Lactuca sativa [4]): Active
Activity (Lactuca sativa [5]): Active

CC1=C(C)C(=O)O[C@]2(C1)O[C@@]1(O)C[C@H]3[C@@H](C[C@@H](O)C4=CC=CC(=O)[C@@]43C)[C@@H]3CC[C@@](O)([C@@H]2C)[C@]31C
Activity (Phalaris canariensis [1]): Active
